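Results reflect a 48-hour exposure of cells in 96-well plates to compound at five concentrations. The concentration for 50% growth inhibition is given as GI50.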 The source made the active and inactive calls. Rule as the data show it: active = GI50 up to about 1.1 µM and inactive = higher.
Assays:
Test in all cases: NCI tumour cell line growth inhibition, 48 h
SNB-19 = test system: SNB-19
SK-MEL-2 = test system: SK-MEL-2
SK-OV-3 = test system: SK-OV-3
SF-295 = test system: SF-295
HL-60 = test system: HL-60
UACC-62 = test system: UACC-62
CAKI-1 = test system: CAKI-1
HCT-15 = test system: HCT-15
SNB-75 = test system: SNB-75
MOLT-4 = test system: MOLT-4
HCC 2998 = test system: HCC 2998
NCI-H460 = test system: NCI-H460
MCF7 = test system: MCF7
OVCAR-8 = test system: OVCAR-8
UACC-257 = test system: UACC-257
ACHN = test system: ACHN
SF-539 = test system: SF-539
HT-29 = test system: HT-29
K562 = test system: K562

Measured: GI50

CCCC(=O)Nc1ccc2c(c1)CN1C(=O)c3ccccc3C1=N2
> 100 µM: HCT-15
inactive: SNB-19 > 100 µM | SK-MEL-2 > 100 µM | SK-OV-3 > 100 µM | SF-295 69.5 µM | HL-60 > 100 µM | UACC-62 > 100 µM | CAKI-1 > 100 µM | SNB-75 49.5 µM | MOLT-4 > 100 µM | HCC 2998 > 100 µM | NCI-H460 > 100 µM | MCF7 > 100 µM | OVCAR-8 > 100 µM | UACC-257 > 100 µM | ACHN > 100 µM | SF-539 > 100 µM | HT-29 > 100 µM

O=C(OC1OC2COC(=O)c3cc(O)c(O)c(O)c3-c3c(cc(O)c(O)c3O)C(=O)OC3C2OC(=O)[C@@]24CC(=O)[C@@](O)(OC25C(=O)O[C@H]2[C@@H](O)CO[C@@]25O)C2(O)Oc5c(O)c(O)cc(c5C24)C(=O)OC13)c1cc(O)c(O)c(O)c1 (stereo partly drawn)
inactive: SNB-19 > 100 µM | SK-MEL-2 > 100 µM | SK-OV-3 83 µM | K562 30.1 µM | SF-295 44 µM | HL-60 21.2 µM | UACC-62 35.7 µM | CAKI-1 12.1 µM | SNB-75 34 µM | MOLT-4 40.5 µM | HCC 2998 28 µM | NCI-H460 40.9 µM | MCF7 13.6 µM | OVCAR-8 37.1 µM | UACC-257 > 100 µM | ACHN 32.1 µM | HT-29 23.2 µM
22.9 µM: HCT-15

Nc1nc(Cl)cc(Nc2ccc3c(c2)CCC3)n1
inactive: SNB-19 > 100 µM | SK-MEL-2 > 100 µM | SK-OV-3 > 100 µM | K562 32.7 µM | SF-295 > 100 µM | HL-60 37.2 µM | UACC-62 > 100 µM | CAKI-1 30.1 µM | MOLT-4 2.45 µM | HCC 2998 65 µM | NCI-H460 55.8 µM | MCF7 > 100 µM | OVCAR-8 80.9 µM | UACC-257 > 100 µM | ACHN > 100 µM | SF-539 > 100 µM | HT-29 26.1 µM
35.9 µM: HCT-15

CC#CCOC(=O)c1ccccc1OC(C)=O
> 100 µM: HCT-15
inactive: SNB-19 > 100 µM | SK-MEL-2 > 100 µM | SK-OV-3 > 100 µM | K562 > 100 µM | SF-295 > 100 µM | HL-60 72.1 µM | UACC-62 > 100 µM | CAKI-1 > 100 µM | SNB-75 > 100 µM | MOLT-4 > 100 µM | HCC 2998 > 100 µM | NCI-H460 > 100 µM | MCF7 > 100 µM | OVCAR-8 > 100 µM | UACC-257 > 100 µM | ACHN > 100 µM | SF-539 > 100 µM

Oc1ccc(Cl)cc1C1=NC(NCN2CCN(CNC3=NC(c4ccccc4)CC(c4cc(Cl)ccc4O)=N3)CC2)=NC(c2ccccc2)C1 (stereo not drawn)
24.4 µM: HCT-15
inactive: SNB-19 41.6 µM | SK-MEL-2 43 µM | SK-OV-3 66.7 µM | K562 36.2 µM | SF-295 32.3 µM | HL-60 28.4 µM | UACC-62 45 µM | CAKI-1 29.5 µM | SNB-75 35.6 µM | HCC 2998 52.6 µM | NCI-H460 35.2 µM | MCF7 9.08 µM | OVCAR-8 31.8 µM | UACC-257 > 100 µM | ACHN 24.8 µM | SF-539 72.1 µM | HT-29 36.5 µM

CCOC(=O)C1C(C(C)C)C2(C#N)C(=N)OC1(C)C2(C#N)C#N (stereo not drawn)
49.3 µM: HCT-15
inactive: SNB-19 > 100 µM | SK-MEL-2 58.9 µM | SK-OV-3 > 100 µM | K562 30.8 µM | SF-295 > 100 µM | HL-60 30 µM | UACC-62 88.9 µM | CAKI-1 2.72 µM | SNB-75 13.3 µM | HCC 2998 > 100 µM | MCF7 59.4 µM | OVCAR-8 > 100 µM | UACC-257 54.8 µM | ACHN > 100 µM | SF-539 > 100 µM | HT-29 82 µM

NC1C/C(=N\O)c2c(Cl)sc(Cl)c21 (stereo not drawn)
inactive: SNB-19 31.3 µM | SK-MEL-2 19.7 µM | SK-OV-3 > 100 µM | K562 43.2 µM | SF-295 28.1 µM | HL-60 21.4 µM | CAKI-1 18 µM | SNB-75 25.2 µM | MOLT-4 9.73 µM | HCC 2998 92.7 µM | NCI-H460 20.4 µM | MCF7 11 µM | OVCAR-8 15.2 µM | UACC-257 17.1 µM | ACHN 21.8 µM | SF-539 8.95 µM | HT-29 23.1 µM
15.6 µM: HCT-15

CCOC(=O)C1=CCOc2cc(N(C)C)ccc21
> 100 µM: HCT-15
inactive: SNB-19 > 100 µM | SK-MEL-2 75 µM | SK-OV-3 > 100 µM | K562 26.9 µM | SF-295 > 100 µM | HL-60 31.8 µM | UACC-62 > 100 µM | CAKI-1 > 100 µM | SNB-75 43.4 µM | HCC 2998 > 100 µM | NCI-H460 > 100 µM | MCF7 > 100 µM | OVCAR-8 > 100 µM | UACC-257 > 100 µM | ACHN > 100 µM | SF-539 > 100 µM | HT-29 > 100 µM

O=C(NCCCNC(=O)c1ccc2c(O)c(O)ccc2c1)c1ccc2c(O)c(O)ccc2c1
inactive: SNB-19 25.7 µM | SK-MEL-2 35.3 µM | SK-OV-3 > 100 µM | K562 19.1 µM | SF-295 19.2 µM | HL-60 6.32 µM | UACC-62 29.9 µM | CAKI-1 > 63 µM | SNB-75 17.1 µM | MOLT-4 20.4 µM | HCC 2998 > 60.4 µM | MCF7 10.5 µM | OVCAR-8 35.6 µM | UACC-257 21.3 µM | ACHN 24.2 µM | SF-539 28.1 µM | HT-29 26.2 µM
27.6 µM: HCT-15

C1=CN2C[n+]3cccc(OCc4ccccc4)c3N=C2C(OCc2ccccc2)=C1
active: K562 < 0.01 µM | HL-60 0.142 µM
inactive: SNB-19 5.18 µM | SK-MEL-2 11.7 µM | SK-OV-3 > 100 µM | SF-295 6.84 µM | UACC-62 11.9 µM | CAKI-1 22 µM | SNB-75 20.1 µM | HCC 2998 5.83 µM | NCI-H460 32.6 µM | MCF7 13.5 µM | OVCAR-8 17.4 µM | UACC-257 8.71 µM | ACHN > 100 µM | SF-539 4.25 µM | HT-29 8.04 µM
> 100 µM: HCT-15

O=C1N(CN2CCOCC2)CN(CN2CCOCC2)C(=O)N1Cc1ccc(CN2C(=O)N(CN3CCOCC3)CN(CN3CCOCC3)C2=O)cc1
inactive: SNB-19 97.7 µM | SK-MEL-2 20.6 µM | SK-OV-3 > 100 µM | SF-295 > 100 µM | HL-60 60.1 µM | UACC-62 31.2 µM | CAKI-1 38.3 µM | SNB-75 89.7 µM | MOLT-4 35.2 µM | HCC 2998 > 100 µM | NCI-H460 36.9 µM | MCF7 38.9 µM | OVCAR-8 42 µM | UACC-257 52.2 µM | ACHN 41.8 µM | SF-539 44.8 µM | HT-29 42 µM
31.2 µM: HCT-15

N#CCCC(CC#N)N1CCN(C(CC#N)CCC#N)CC1 (stereo not drawn)
> 100 µM: HCT-15
inactive: SNB-19 > 100 µM | SK-OV-3 > 100 µM | K562 > 100 µM | SF-295 > 100 µM | HL-60 > 100 µM | UACC-62 > 100 µM | CAKI-1 > 100 µM | SNB-75 > 100 µM | MOLT-4 > 100 µM | HCC 2998 > 100 µM | NCI-H460 > 100 µM | MCF7 > 100 µM | OVCAR-8 > 100 µM | UACC-257 > 100 µM | ACHN > 100 µM | SF-539 > 100 µM | HT-29 > 100 µM

O=C(O)c1ccccc1/C=N/N=C1NCCN1
inactive: SNB-19 > 100 µM | SK-MEL-2 59.6 µM | SK-OV-3 61.5 µM | K562 > 100 µM | SF-295 > 100 µM | HL-60 49.4 µM | UACC-62 > 100 µM | SNB-75 > 100 µM | MOLT-4 > 100 µM | HCC 2998 > 100 µM | NCI-H460 > 100 µM | MCF7 91.2 µM | OVCAR-8 > 100 µM | UACC-257 84.1 µM | ACHN 98.9 µM | SF-539 > 100 µM | HT-29 > 100 µM
> 100 µM: HCT-15

N#Cc1sc2c(c1OC(=O)c1ccco1)c(=O)n(-c1ccccc1)c(=S)n2-c1ccccc1
20 µM: HCT-15
inactive: SNB-19 36.4 µM | SK-MEL-2 28.8 µM | SK-OV-3 27.7 µM | K562 15 µM | SF-295 26.7 µM | HL-60 67.5 µM | UACC-62 15.3 µM | CAKI-1 39.7 µM | SNB-75 18.8 µM | MOLT-4 13.8 µM | HCC 2998 55.7 µM | NCI-H460 32 µM | MCF7 31.2 µM | OVCAR-8 29.9 µM | UACC-257 62.2 µM | SF-539 26.1 µM | HT-29 32.9 µM

C[C@@](O)(/C=C/[C@H]1CC=CC(=O)O1)[C@@H](C[C@@H](O)\C=C/C=C\C=C\CO)OP(=O)(O)O [FOSTRIECIN SODIUM]
inactive: SNB-19 32.3 µM | SK-MEL-2 11.2 µM | SK-OV-3 10.2 µM | K562 1.6 µM | SF-295 3.94 µM | UACC-62 3.77 µM | CAKI-1 1.81 µM | HCC 2998 4.28 µM | NCI-H460 10.4 µM | MCF7 2.97 µM | OVCAR-8 9.48 µM | UACC-257 4.94 µM | ACHN 4.51 µM | SF-539 7.23 µM | HT-29 1.75 µM
5.74 µM: HCT-15
active: HL-60 1.1 µM

Reference: ChEMBL document CHEMBL1201862, “PubChem BioAssay data set” (2004)
